The source of these data is US6083922A (priority 1997, dated 2000).

Each structure is given as a SMILES string. Converted amounts (≈) assume the structure as drawn. Read-outs that look alike come from different tables or passages of the source.

The subject of test [1] is Multidrug-Resistant Strains of M. tuberculosis. Description: microbe, parasite or virus in culture. Type of test: cell-based, Mycobacterium tuberculosis. Particulars: for MIC: Mycobacterium tuberculosis.
Test [2] has as its system drug-sensitive and multidrug-resistant strains of M. tuberculosis. Briefly: Survey of tobramycin MICs. Type of test: cell-based. Particulars: Mycobacterium tuberculosis.

For the compound `NC[C@H]1O[C@H](O[C@H]2[C@H](O)[C@@H](O[C@H]3O[C@H](CO)[C@@H](O)[C@H](N)[C@H]3O)[C@H](N)C[C@@H]2N)[C@H](N)C[C@@H]1O` [tobramycin], the “sensitivity of multidrug-resistant strains to tobramycin” value in test [1] is “sensitive and nonresistant”. In addition, the MIC in test [1] (read-out: MIC Tobramycin, strain TN565 (resistant to INH, RIF, SM, KAN)) was over 128 µg/mL; in test [1] (read-out: MIC Tobramycin, strain TN576 (resistant to INH, RIF, SM, EMB, KAN)), over 128 µg/mL; in test [1] (read-out: MIC Tobramycin, strain TN587 (resistant to INH, RIF, SM, EMB, KAN)), over 128 µg/mL; in test [1] (read-out: MIC Tobramycin, strain TN702 (resistant to INH, SM)), 4 µg/mL (≈ 8.56 µM); in test [1] (read-out: MIC Tobramycin, strain TN715 (resistant to INH, RIF, SM)), 4 µg/mL (≈ 8.56 µM); in test [1] (read-out: MIC Tobramycin, strain TN768 (resistant to INH, RIF, SM, EMB)), 8 µg/mL (≈ 17.1 µM). Also, the MIC in test [1] (read-out: MIC Tobramycin, strain TN1195 (resistant to INH, SM)) was 4 µg/mL (≈ 8.56 µM); in test [1] (read-out: MIC Tobramycin, strain TN1314 (resistant to INH, RIF)) it was 8 µg/mL (≈ 17.1 µM); in test [1] (read-out: MIC Tobramycin, strain TN1811 (resistant to INH, RIF, SM, EMB)) it was 4 µg/mL (≈ 8.56 µM); in test [1] (read-out: MIC Tobramycin, strain TN2015 (resistant to INH, RIF, SM, KAN)), over 128 µg/mL; in test [1] (read-out: MIC Tobramycin, strain TN2557 (resistant to INH, RIF, SM)), 8 µg/mL (≈ 17.1 µM); in test [1] (read-out: MIC Tobramycin, strain TN3806 (resistant to INH, RIF, SM, EMB, KAN)), over 128 µg/mL. Also, the MIC was 4 to 8 µg/mL (≈ 8.56 to 17.1 µM) in test [1] (read-out: activity against multidrug-resistant strains), over 128 µg/mL in test [2] and at most 8 µg/mL in test [2] (read-out: minimal inhibitory concentrations (MICs)).
